According to US5643876A, “Biologically active synthetic magainin peptides” (The United States of America as represented by the …, priority 1992, dated 1997):
No end group written: not given here.

Columns and labels:
E. coli Y1088 = experiment: Zone of inhibition on lawn of E. coli Y1088; assay type: cell-based
[1] = system: Acinetobacter caloaceticus (19606); experiment: Minimal inhibitory concentration in trypticase soy broth; assay type: cell-based
Source text: (§1) Table III also lists the range of minimal inhibitory concentrations for various organisms assayed in trypticase soy broth. These determinations were made following standard techniques well known in the art and described in such publications as, DIFCO Manual, 10th edition, 1984, pages 78-80.

Candida albicans (14053) = experiment: as above; assay type: cell-based
Source text: as §1

[2] = system: Citrobacter freundii (8090); experiment: as above; assay type: cell-based
Source text: as §1

[3] = system: Enterobacter aerogenes (13048); experiment: as above; assay type: cell-based
Source text: as §1

Eschericia coli (25922) = experiment: as above; assay type: cell-based
Source text: as §1

Eschericia coli D31 = experiment: as above; assay type: cell-based
Source text: as §1

[4] = system: Klebisiella pneumonia (13883); experiment: as above; assay type: cell-based
Source text: as §1

Proteus vulgaris (13315) = experiment: as above; assay type: cell-based
Source text: as §1

[5] = system: Pseudomonas aeruginosa (27853); experiment: as above; assay type: cell-based
Source text: as §1

[6] = system: Salmonella typhimurium (14028); experiment: as above; assay type: cell-based
Source text: as §1

[7] = system: Serratia marcescens (8100); experiment: as above; assay type: cell-based
Source text: as §1

[8] = system: Shigella flexneri (12022); experiment: as above; assay type: cell-based
Source text: as §1

[9] = system: Staphyloccus epidermidis (1228); experiment: as above; assay type: cell-based
Source text: as §1

[10] = system: Staphylococcus aureus (25923); experiment: as above; assay type: cell-based
Source text: as §1

[11] = system: Streptococcus faecalis (19433); experiment: as above; assay type: cell-based
Source text: as §1

[12] = system: Streptococcus pyogenes (19615); experiment: as above; assay type: cell-based
Source text: as §1

Amoeba proteus = experiment: Antiprotozoan activity, physical lysis by light microscopy; assay type: cell-based; details: approximate concentration, visual assessment by light microscopy
Source text: (§2) Table IV lists the approximate concentration of Magainins which induces physical lysis of several representative protozoan species. These determinations were made by visual assessment of the treated organisms by light microscopy. Of course, the optimal effective antimicrobial concentration of a particular Magainin can be easily determined in a routine manner without undue experimentation by techniques well known to one of ordinary skill in the art.

Euglena gracilis = experiment: as above; assay type: cell-based; details: approximate concentration, visual assessment by light microscopy
Source text: as §2

Paramecium caudatum = experiment: as above; assay type: cell-based; details: approximate concentration, visual assessment by light microscopy
Source text: as §2

[13] = system: Enterobacter sonnei (23355); experiment: Minimal inhibitory concentration in trypticase soy broth; assay type: cell-based
Source text: as §1

Shigella sonnei (25931) = experiment: as above; assay type: cell-based
Source text: as §1

Acanthomeba castellani = experiment: Comparison of potencies, MIC (Table V); assay type: cell-based
Source text: (§3) It is pointed that the addition of a carboxyl-terminal amide to Magainin II results in about a 5-fold increase in potency of the peptide in several systems when compared to Magainin II. This simple modification illustrates one of several ways of modifying the polypeptides of the present invention.

E. coli D-31 = experiment: Comparison of potencies, MIC (Table V); assay type: cell-based; details: E. coli D-31 (Table V)
Source text: as §3

Pseudomonas aeruginosa = experiment: Comparison of potencies, MIC (Table V); assay type: cell-based
Source text: as §3

Saccharomyces cerviscae = experiment: Comparison of potencies, MIC (Table V); assay type: cell-based
Source text: as §3

Vero Cells = experiment: Cytotoxicity by loss of Trypan Blue exclusion; assay type: cell-based, monkey; details: 30 minutes after addition, MEM with 10% fetal calf serum
Source text: (§4) This activity is considered a significant attribute of the Magainin peptides in that it permits their use in the killing of animal cells. […] The most resistant appears to be the epithelial cell from the oral mucosa. The most sensitive is a transformed monkey kidney cell. […] This includes anti-tumor activity, in vivo cytolysis or growth inhibition of malignant cells, such as in leukemias and selective reduction in specific cell populations (e.g., removal of lymphocytes from blood).
(§5) Cells were suspended in standard minimal Eagles medium containing 10% fetal calf serum. VERO cells and KB cells were obtained from the American Type Culture Collection. Human diploid fibroblasts were propagated from a primary dermal biopsy. Human lymphocytes were collected from a buffy coat preparation by centrifugation in ficoll-hyapaque medium. Human buccal epithelium was obtained by scraping the oral mucosa with a glass cover-slip and resuspending the cellular scraping in MEM. Cytotoxicity was determined by loss of Trypan Blue exclusion, following addition of dye to the medium. Cytotoxicity was assessed 30 minutes after addition of the peptide. Concentration noted represents the concentration of peptide resulting in 50% toxicity as determined visually by light microscopic examination of the treated cells.

[14] = system: Human Buccal Epithelial Cells; experiment: Cytotoxicity by loss of Trypan Blue exclusion; assay type: cell-based; details: 30 minutes after addition
Source text: as §4, §5

[15] = system: Human Diploid Fibroblasts; experiment: Cytotoxicity by loss of Trypan Blue exclusion; assay type: cell-based; details: 30 minutes after addition
Source text: as §4, §5

Human KB Cells = experiment: Cytotoxicity by loss of Trypan Blue exclusion; assay type: cell-based; details: 30 minutes after addition
Source text: as §4, §5

[16] = system: Peripheral Human Lymphocytes; experiment: Cytotoxicity by loss of Trypan Blue exclusion; assay type: cell-based; details: 30 minutes after addition
Source text: as §4, §5

human sperm = experiment: Spermicidal activity, sperm motility by light microscopy; assay type: cell-based; details: human sperm in phosphate buffered saline, room temperature
Description: Magainin II(g) was added in various concentrations to a suspension of human sperm in phosphate buffered saline. Motility was assayed by visual inspection under a light microscope. Observations were conducted at room temperature (about 22°-25° C.). The approximate number of motile sperm observed in 20 independent fields was noted as a function of concentration. Magainin II(g) inhibits sperm motility by 50% at 35 μg/ml and by 100% at 75 μg/ml.

Plasmodium gallinaceum = experiment: Activity against malarial parasite, direct light microscopy; assay type: cell-based; details: 100 ug/ml in phosphate buffered saline, within seconds
Description: Observations of activity were conducted by direct light microscopy. A sample of female and male zygotic forms of the chicken malarial parasite were suspended in phosphate buffered saline. Magainin II(g) was added to each at 100 ug/ml.

HTLV III = experiment: Anti-viral activity against HTLV III in SUPT1 tester cells; assay type: cell-based; details: 200 μg/ml, virus preincubated 37° C. 30 min
Description: HTLV III was obtained from culture media from the producing cell line A.3101. The media was diluted with MEM containing 10% fetal calf serum (FCS) to a viral concentration of about 10^4 pfu/ml. Magainin II(g) was added to the viral innoculum (1 ml) to a concentration of 200 μg/ml and incubated at 37° C. for 30 min. The viral innoculum was then added to a well containing 10^3 tester cells (cell line, SUPT1) and 1 ml of MEM with 10% FCS. Viral activity was assessed by formation of syncytia and cell death in the test cell culture as compared with cell cultures unexposed to Magainin peptides.

Row | Substance | Zone of Inhibition on Lawn of E. coli Y1088 Generated by 50 μg of the Peptide (E. coli Y1088) [mm] | Minimal Inhibitory Concentration [1] [µg/mL] | Minimal Inhibitory Concentration (Candida albicans (14053)) [µg/mL] | Minimal Inhibitory Concentration [2] [µg/mL] | Minimal Inhibitory Concentration [3] [µg/mL] | Minimal Inhibitory Concentration (Eschericia coli (25922)) [µg/mL] | Minimal Inhibitory Concentration (Eschericia coli D31) [µg/mL] | Minimal Inhibitory Concentration (Proteus vulgaris (13315)) [µg/mL] | Minimal Inhibitory Concentration [5] [µg/mL] | Minimal Inhibitory Concentration [6] [µg/mL] | Minimal Inhibitory Concentration [7] [µg/mL] | Minimal Inhibitory Concentration [9] [µg/mL] | Minimal Inhibitory Concentration [10] [µg/mL] | Minimal Inhibitory Concentration [11] [µg/mL] | Minimal Inhibitory Concentration [12] [µg/mL] | Concentration required for osmotic lysis (Amoeba proteus) [µg/mL] | Concentration required for osmotic lysis (Euglena gracilis) [µg/mL] | Concentration required for osmotic lysis (Paramecium caudatum) [µg/mL] | also measured
1 | FLHSAKKFGKAFVGEIMNS [Magainin II(d), (NH2)FLHSAKKFGKAFVGEIMNS(OH)] | 2 |  |  |  |  |  |  |  |  |  |  |  |  |  |  |  |  |  | 
2 | GIGKFLHSAGKFGKAFVGEIMKS [Magainin I] |  | 7 to 35 | > 100 | > 100 | > 100 | 7 to 35 | 1 to 20 | > 100 | > 100 | > 100 | > 100 | > 100 | > 100 | > 100 | 7 to 35 | 5 | 5 | 5 | Minimal Inhibitory Concentration [4]: > 100 µg/mL; Minimal Inhibitory Concentration [8]: 35 to 70 µg/mL
3 | GIGKFLHSAKKFGKAFVGEIMN [Magainin III] |  | 7 to 35 | > 100 | 7 to 35 | > 100 | 7 to 35 | 1 to 10 | > 100 | 35 to 70 | 35 to 70 | > 100 | 35 to 70 | > 100 | > 100 | 7 to 35 | 5 | 5 | 5 | Minimal Inhibitory Concentration [4]: > 100 µg/mL
4 | GIGKFLHSAKKFGKAFVGEIMNS [Magainin II] |  | 1 to 7 | 35 to 70 | 7 to 35 | 7 to 35 | 1 to 7 | 1 to 10 | > 100 | 35 to 70 | 35 to 70 | > 100 | 7 to 35 | 35 to 70 | 35 to 70 | 1 to 7 | 5 | 5 | 5 | Minimal Inhibitory Concentration [13]: 1 to 7 µg/mL; Minimal Inhibitory Concentration (Shigella sonnei (25931)): 1 to 7 µg/mL; MIC (Acanthomeba castellani): 15 µg/mL; MIC (E. coli D-31): 10 µg/mL; MIC (Pseudomonas aeruginosa): 70 µg/mL; MIC (Saccharomyces cerviscae): 50 µg/mL
5 | GIGKFLHSAKKFGKAFVGEIMNS-NH2 [Magainin II(g)] | 15 |  |  |  |  |  |  |  |  |  |  |  |  |  |  |  |  |  | MIC (Acanthomeba castellani): 3 µg/mL; MIC (E. coli D-31): 2 µg/mL; MIC (Pseudomonas aeruginosa): 15 µg/mL; MIC (Saccharomyces cerviscae): 10 µg/mL; Concentration of peptide resulting in 50% toxicity (Vero Cells): 25 µg/mL; Concentration of peptide resulting in 50% toxicity [14]: 500 µg/mL; Concentration of peptide resulting in 50% toxicity [15]: 250 µg/mL; Concentration of peptide resulting in 50% toxicity (Human KB Cells): 125 µg/mL; Concentration of peptide resulting in 50% toxicity [16]: 75 µg/mL; Concentration that inhibits sperm motility by 50% (human sperm): 35 µg/mL; Concentration that inhibits sperm motility by 100% (human sperm): 75 µg/mL; Effect on female and male zygotic forms of Plasmodium gallinaceum (Plasmodium gallinaceum): both forms underwent evident physical lysis; Reverse transcriptase activity in culture fluids (HTLV III): no greater reverse transcriptase activity than uninfected cells; Viral activity by formation of syncytia and cell death in test cell culture (HTLV III; 2 weeks incubation): appeared identical to cultures not exposed to virus
6 | GIGKYLHSAKKFGKAFVGEIMNS-NH2 [Magainin II(h)] | 7 |  |  |  |  |  |  |  |  |  |  |  |  |  |  |  |  |  | 
7 | GKFLHSAKKFGKAFVGEIMNS [Magainin II(b)] | 10 |  |  |  |  |  |  |  |  |  |  |  |  |  |  |  |  |  | 
8 | HSAKKFGKAFVGEIMNS [Magainin II(f), (NH2)HSAKKFGKAFVGEIMNS(OH)] | 0 |  |  |  |  |  |  |  |  |  |  |  |  |  |  |  |  |  | Effect on female and male zygotic forms of Plasmodium gallinaceum (Plasmodium gallinaceum): no visible effect
9 | KFLHSAKKFGKAFVGEIMNS [Magainin II(c)] | 10 |  |  |  |  |  |  |  |  |  |  |  |  |  |  |  |  |  | 
10 | LHSAKKFGKAFVGEIMNS [Magainin II(e), (NH2)LHSAKKFGKAFVGEIMNS(OH)] | 1 |  |  |  |  |  |  |  |  |  |  |  |  |  |  |  |  |  | 
